Drawing on ChEMBL document CHEMBL3046442, “Synthesis and Acaricidal Activity of Bicyclic Pyrazole-3-carboxamide Derivatives” (1992), this text covers mortality and LC50 for 26 compounds.

≈ marks a conversion by molar mass, not a printed value.

Holding throughout (assay type): functional
Assay [1] relates to Tetranychus urticae. Description: Acaricidal activity against Tetranychus urticae (two-spotted spider mite) infested kidney bean leaf assessed as mortality at 50 ppm after 5 days. Particulars: 120 h.
Assay [2] concerns Tetranychus urticae. Nature of the assay: Acaricidal activity against Tetranychus urticae (two-spotted spider mite) infested kidney bean leaf assessed as mortality at 3.1 ppm after 5 days. Particulars: 120 h.
Assay [3] deals with Tetranychus urticae. Nature of the assay: Acaricidal activity against Tetranychus urticae (two-spotted spider mite) infested kidney bean leaf assessed as mortality at 12.5 ppm after 5 days. Particulars: 120 h.
Assay [4] concerns Tetranychus urticae. Nature of the assay: Acaricidal activity against Tetranychus urticae (two-spotted spider mite) infested kidney bean leaf assessed as mortality at 200 ppm after 5 days. Particulars: 120 h.
Assay [5] deals with Tetranychus urticae. Description: Ovicidal activity against Tetranychus urticae (two-spotted spider mite) eggs laid on compound-treated kidney bean leaf disk measured after 7 days. Particulars: foliar, 168 h.
For assay [6], the system named is Panonychus citri. Description: Adulticidal activity against adult Panonychus citri infested mandarian orange after 2 days. Particulars: 48 h.
The test system of assay [7] is Panonychus citri. Description: Ovicidal activity against Panonychus citri eggs laid on compound-treated mandarian orange measured after 7 days. Particulars: 168 h.
Assay [8] has as its system Tetranychus urticae. Description: Adulticidal activity against adult Tetranychus urticae (two-spotted spider mite) infested kidney bean leaf disk after 2 days. Particulars: foliar, 48 h.

The term mortality denotes the share of the test organisms that died. The term LC50 denotes the concentration lethal to half of the exposed cells or organisms.

Take `Cn1nc2c(c1C(=O)NCc1ccc(C(C)(C)C)cc1)CCCC2`: the mortality at 50 ppm in assay [1] came out at 1%. The mortality at 3.1 ppm in assay [2] turned out to be 0%. In assay [3], the mortality at 12.5 ppm was 0%. For the same compound, the mortality at 200 ppm in assay [4] amounted to 2%.
On to `CC1CCCc2c1nn(C)c2C(=O)NCc1ccc(C(C)(C)C)cc1` (stereo unspecified), for which the mortality at 50 ppm in assay [1] came out at 0%. For the same compound, the mortality at 3.1 ppm in assay [2] was found to be 0%. Moreover, the mortality at 12.5 ppm in assay [3] stood at 0%. In assay [4], the mortality at 200 ppm came out at 0%.
As for `CC1CC(C)c2c1nn(C)c2C(=O)NCc1ccc(C(C)(C)C)cc1` (stereo unspecified), the mortality at 50 ppm in assay [1] was determined as 0%. The mortality at 3.1 ppm in assay [2] stood at 0%. In addition, in assay [3], the mortality at 12.5 ppm is 0%. Also, the mortality at 200 ppm in assay [4] came out at 1%.
For `CCC1CCc2c1nn(C)c2C(=O)NCc1ccc(C(C)(C)C)cc1` (stereo unspecified), in assay [1], the mortality at 50 ppm was found to be 0%. Besides, the mortality at 3.1 ppm in assay [2] was found to be 0%. Besides, the mortality at 12.5 ppm in assay [3] came out at 0%. For the same compound, the mortality at 200 ppm in assay [4] turned out to be 0%.
On to `Cn1nc2c(c1C(=O)NCc1ccc([Si](C)(C)C)cc1)CCC2`, for which the mortality at 50 ppm in assay [1] is 3%. Besides, the mortality at 3.1 ppm in assay [2] was 1%. Further, the mortality at 12.5 ppm in assay [3] came to 3%. For the same compound, in assay [4], the mortality at 200 ppm is 3%.
In the case of `CC1CCc2c1nn(C)c2C(=O)NCc1ccc(C(C)(C)C)cc1` (stereo unspecified), the LC50 in assay [5] is 1.7 mg/L (≈ 5.22 µM); in assay [6] it was 0.42 mg/L (≈ 1.29 µM); in assay [7], 6.3 mg/L (≈ 19.4 µM); in assay [8], 2.1 mg/L (≈ 6.45 µM). Further, the mortality at 50 ppm in assay [1] is 3%. The mortality at 3.1 ppm in assay [2] came out at 3%. In assay [3], the mortality at 12.5 ppm amounted to 3%. Also, in assay [4], the mortality at 200 ppm is 3%.
Take `Cn1nc2c(c1C(=O)NCc1ccc(CC(C)(C)C)cc1)CCC2`: in assay [1], the mortality at 50 ppm turned out to be 1%. Further, the mortality at 3.1 ppm in assay [2] amounted to 0%. The mortality at 12.5 ppm in assay [3] turned out to be 0%. For the same compound, the mortality at 200 ppm in assay [4] stood at 3%.
For the compound `CCC(C)c1ccc(CNC(=O)c2c3c(nn2C)CCC3)cc1` (stereo unspecified), the mortality at 50 ppm in assay [1] was 3%. For the same compound, the mortality at 3.1 ppm in assay [2] was 0%. For the same compound, the mortality at 12.5 ppm in assay [3] amounted to 1%. For the same compound, the mortality at 200 ppm in assay [4] stood at 3%.
As to `CC(C)Cc1ccc(CNC(=O)c2c3c(nn2C)CCC3)cc1`, the mortality at 50 ppm in assay [1] amounted to 0%. Also, the mortality at 3.1 ppm in assay [2] amounted to 0%. Moreover, in assay [3], the mortality at 12.5 ppm came to 0%. In assay [4], the mortality at 200 ppm was found to be 1%.
As to `CCCCc1ccc(CNC(=O)c2c3c(nn2C)CCC3)cc1`, in assay [1], the mortality at 50 ppm was 0%. The mortality at 3.1 ppm in assay [2] was determined as 0%. Also, in assay [3], the mortality at 12.5 ppm is 0%. For the same compound, in assay [4], the mortality at 200 ppm was 2%.
On to `CC(C)c1ccc(CNC(=O)c2c3c(nn2C)CCC3)cc1`, for which the mortality at 50 ppm in assay [1] came to 2%. For the same compound, in assay [2], the mortality at 3.1 ppm came to 0%. For the same compound, in assay [3], the mortality at 12.5 ppm came out at 1%. Also, the mortality at 200 ppm in assay [4] amounted to 3%.
For the compound `Cc1ccc(CNC(=O)c2c3c(nn2C)CCC3)cc1`, the mortality at 50 ppm in assay [1] was found to be 0%. In assay [2], the mortality at 3.1 ppm stood at 0%. Besides, the mortality at 12.5 ppm in assay [3] was found to be 0%. Further, in assay [4], the mortality at 200 ppm turned out to be 0%.
`Cn1nc2c(c1C(=O)NCc1ccccc1)CCC2`: the mortality at 50 ppm in assay [1] is 0%. In assay [2], the mortality at 3.1 ppm worked out at 0%. The mortality at 12.5 ppm in assay [3] amounted to 0%. For the same compound, in assay [4], the mortality at 200 ppm is 0%.
As to `Cn1nc2c(c1C(=O)SCc1ccc(C(C)(C)C)cc1)CCC2`, in assay [1], the mortality at 50 ppm is 0%. Further, in assay [4], the mortality at 200 ppm is 0%.
For the compound `Cn1nc2c(c1C(=O)OCc1ccc(C(C)(C)C)cc1)CCC2`, in assay [1], the mortality at 50 ppm was 0%. The mortality at 200 ppm in assay [4] amounted to 1%.
The like results for `Cn1nc2c(c1C(=S)NCc1ccc(C(C)(C)C)cc1)CCC2` were, in that order, 0% and 0%.
For `CN(Cc1ccc(C(C)(C)C)cc1)C(=O)c1c2c(nn1C)CCC2`, in assay [1], the mortality at 50 ppm was determined as 0%. In addition, the mortality at 200 ppm in assay [4] turned out to be 0%.
Turning to `Cn1nc2c(c1C(=O)NCCc1ccc(C(C)(C)C)cc1)CCC2`, the mortality at 50 ppm in assay [1] was 0%. The mortality at 200 ppm in assay [4] amounted to 0%.
On to `CC(C)(C)c1ccc(CNC(=O)c2c3c(nn2-c2ccccc2)CCC3)cc1`, for which the mortality at 50 ppm in assay [1] was 0%. For the same compound, the mortality at 200 ppm in assay [4] turned out to be 0%.
On to `CC(C)(C)c1ccc(CNC(=O)c2c3c(nn2C(C)(C)C)CCC3)cc1`, for which the mortality at 50 ppm in assay [1] was 0%. Also, in assay [4], the mortality at 200 ppm was 0%.
Take `CCCCn1nc2c(c1C(=O)NCc1ccc(C(C)(C)C)cc1)CCC2`: the mortality at 50 ppm in assay [1] worked out at 0%. The mortality at 200 ppm in assay [4] is 0%.
For `CC(C)n1nc2c(c1C(=O)NCc1ccc(C(C)(C)C)cc1)CCC2`, the mortality at 50 ppm in assay [1] was 0%. In addition, in assay [4], the mortality at 200 ppm is 0%.
Turning to `CCn1nc2c(c1C(=O)NCc1ccc(C(C)(C)C)cc1)CCC2`, in assay [1], the mortality at 50 ppm was 0%. For the same compound, in assay [4], the mortality at 200 ppm is 0%.
For `Cn1nc2c(c1C(=O)NCc1ccc(C(C)(C)C)cc1)CCC2`, the mortality at 50 ppm in assay [1] stood at 3%. For the same compound, the mortality at 3.1 ppm in assay [2] was 2%. The mortality at 12.5 ppm in assay [3] was found to be 3%. Moreover, the mortality at 200 ppm in assay [4] was 3%.
On to `CC(C)(C)c1ccc(CNC(=O)c2[nH]nc3c2CCC3)cc1`, for which, in assay [1], the mortality at 50 ppm stood at 0%. Further, in assay [4], the mortality at 200 ppm is 0%.
Consider `CCc1nn(C)c(C(=O)NCc2ccc(C(C)(C)C)cc2)c1Cl` [TEBUFENPYRAD], for which the LC50 in assay [5] stood at 0.96 mg/L (≈ 2.88 µM); in assay [6] it was 0.5 mg/L (≈ 1.5 µM); in assay [7] it was 3.9 mg/L (≈ 11.7 µM); in assay [8] it was 3.7 mg/L (≈ 11.1 µM).
